The experiment deals with DNA. In words: Screening of rosamine library toward 47 analytes: DNA. Type of experiment: binding. The conditions noted are these: screen of 47 analytes, duplicated, FIG. 10B. As to the method: The rosamine derivative compounds were screened toward 47 different analytes that include proteins, polysaccharides, nucleic acids, and metal ions. The stock solution of each dye (50 μL) in HEPES (20 mM, pH=7.4) or PBS (20 mM, pH=7.4) was prepared, and diluted with the each analyte (50 μL, 1.0 mg/mL or 200 μM) in the same buffer solution. The final dye concentration varied from 0.5 μM to 10 μM. The fluorescence intensity fold changes of each dye in the presence of analytes were calculated by comparing the fluorescence intensity at the maximum emission wavelength with/without the analyte.

Molecules are shown by their SMILES. Entries after “also recorded” stand apart in the source; their conditions may differ.

In the case of `CCN(CCCN(C)C)c1ccc2c(=O)c3ccc(N)cc3oc2c1` [L, 3-Amino-6-[(3-dimethylamino-propyl)-ethyl-amino]-xanthen-9-one], the “fluorescence response to DNA” value is “selective response; also recorded: selective increase of fluorescence intensity”.

For the origin of these results see patent US8026110B2, “Combinatorial rosamine library and uses thereof” (New York University, priority 2006, dated 2011).
